According to patent US4289748A, “Ultrasensitive enzymatic radioimmunoassay method” (United States of America, priority 1979, dated 1981):
One block for each molecule: values may come before it.

What was measured:
[1] = molecular target: alkaline phosphatase-IgG (goat anti-rabbit) conjugate (Bos taurus, UniProt P19111); assay: Enzyme kinetics of alkaline phosphatase-IgG conjugate with varying AMP concentrations, double reciprocal plot; type: biochemical, calf; conditions: 10 mM diethanolamine buffer pH 9.8, 37° C., 30 minutes, conjugate 2×10^-8 mg/ml; double reciprocal plot (FIG. 4b)
Procedure: To determine the enzyme kinetics of alkaline phosphatase-IgG (goat anti-rabbit) conjugate, varying concentrations of adenosine-5'-monophosphate were added to a 10^6 dilution of the enzyme-IgG conjugate. […] Alkaline phosphatase conjugate (2×10^-8 milligrams per milliliter) was added to 10 mM diethanolamine buffer having a pH of 9.8, containing various concentrations of AMP. The reaction mixtures were incubated at 37° C. for 30 minutes. The tritium-labelled adenosine released was determined by column chromatography utilizing DEAE Sephadex by applying an 0.05 milliliter aliquot of the reaction mixture to a column packed with 1.5 milliliters DEAE Sephadex A-25 followed by elutation with a total of 4.5 milliliters of 0.01 M diethanolamine buffer with a pH of 9.8, containing 0.1 mM unlabelled adenosine in two fractions. 20 ml of liquid scintillator, Aquasol®, was added to each fraction and the tritium-labelled adenosine was measured in a liquid scintillation counter. The Km was calculated to be approximately 4 mM by a double reciprocal plot of the Michalis-Menton equation which is shown in FIG. 4b. […] The counting of the actual scintillation counter was adjusted in accordance with standard techniques to yield DPM, disintegrations per minute. Varying concentrations of diethanolomine buffer and MgCl2 were tested. […]

[2] = molecular target: alkaline phosphatase-IgG conjugate (Bos taurus, UniProt P19111); assay: Effect of reaction products on the alkaline phosphatase-IgG conjugate assay (tritium-AMP hydrolysis); type: biochemical, calf; conditions: 100 picamole tritium-AMP, 10 mM buffer pH 9.0, 37° C.
Procedure: Triplicates of the assay mixture containing 100 picamole of tritium-AMP and 10^-8 milligrams of enzyme conjugate in 0.1 milliliter of 10 mM buffer with a pH of 9.0 were incubated at 37° C. from 0 to 48 hours. Aliquots of 50 microliters of the reaction mixtures were withdrawn for determination of enzyme activity at 0.5, 1.5, 4.5, 24 and 48 hours. The enzyme activity was nearly linear for 90 minutes with approximately 2% of the tritium-AMP hydrolyzed to tritium-adenosine and phosphate. At 24 and 48 hours, the enzyme reaction became slower. Since the tritium-AMP radioindicator was still in excess, the reduction of enzyme activity could be secondary to enzyme degradation and/or product inhibition. To determine the effects of reaction products on the assay, either phosphate (2 or 20 picamoles) or adenosine (20 picamoles) was added to the assay mixtures. 2 and 20 picamole phosphate inhibited alkaline phosphatase activity by 8% and 90% respectively. […] The variation in the triplicate samples was small. For reaction times of less than 5 hours, the variation in either duplicate or triplicate samples was less than 10% of the mean value.

alkaline phosphatase-IgG conjugate, sequence (P19111 20-506 limits assumed): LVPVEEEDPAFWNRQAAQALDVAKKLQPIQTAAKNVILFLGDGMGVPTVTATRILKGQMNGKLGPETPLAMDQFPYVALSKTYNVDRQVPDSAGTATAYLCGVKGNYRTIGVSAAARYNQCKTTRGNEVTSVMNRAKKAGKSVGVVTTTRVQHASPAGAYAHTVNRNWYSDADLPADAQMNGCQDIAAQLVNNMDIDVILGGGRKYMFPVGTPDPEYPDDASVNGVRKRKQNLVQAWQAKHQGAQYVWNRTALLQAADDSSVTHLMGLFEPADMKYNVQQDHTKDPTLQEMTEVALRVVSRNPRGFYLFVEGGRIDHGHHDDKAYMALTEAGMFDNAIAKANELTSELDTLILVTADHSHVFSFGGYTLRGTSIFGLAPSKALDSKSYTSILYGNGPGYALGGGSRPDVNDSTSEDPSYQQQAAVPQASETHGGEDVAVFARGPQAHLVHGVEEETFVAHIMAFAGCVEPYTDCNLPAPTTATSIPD
alkaline phosphatase-IgG (goat anti-rabbit) conjugate, sequence (P19111 20-506 limits assumed): as above

- Km [1]: ~4 mM
Molecule: Nc1ncnc2c1ncn2[C@@H]1O[C@H](COP(=O)(O)O)[C@@H](O)[C@H]1O [adenosine-5'-monophosphate]

Molecule: Nc1ncnc2c1ncn2[C@@H]1O[C@H](CO)[C@@H](O)[C@H]1O [adenosine]
- effect on the activity of the phosphatase ([2]; 20 picamole adenosine added to 0.1 ml assay mixture): no detectable effect

- inhibition of alkaline phosphatase activity ([2]; 2 picamole phosphate added to 0.1 ml assay mixture): 8%
- inhibition of alkaline phosphatase activity ([2]; 20 picamole phosphate added to 0.1 ml assay mixture): 90%
Molecule: phosphate
